≈ marks a conversion by molar mass, not a printed value. Calls of active or inactive are those of the source. The rule behind the calls is not given here.
Assays:
[1] = target: T1, Tyrosine-protein kinase receptor UFO (Homo sapiens, UniProt P30530); assay: Inhibition of Axl (unknown origin) using 5'FAM labeled KKKKEEIYFFF-NH2 peptide as substrate incubated for 1.5 hrs
T1 sequence (P30530 whole entry): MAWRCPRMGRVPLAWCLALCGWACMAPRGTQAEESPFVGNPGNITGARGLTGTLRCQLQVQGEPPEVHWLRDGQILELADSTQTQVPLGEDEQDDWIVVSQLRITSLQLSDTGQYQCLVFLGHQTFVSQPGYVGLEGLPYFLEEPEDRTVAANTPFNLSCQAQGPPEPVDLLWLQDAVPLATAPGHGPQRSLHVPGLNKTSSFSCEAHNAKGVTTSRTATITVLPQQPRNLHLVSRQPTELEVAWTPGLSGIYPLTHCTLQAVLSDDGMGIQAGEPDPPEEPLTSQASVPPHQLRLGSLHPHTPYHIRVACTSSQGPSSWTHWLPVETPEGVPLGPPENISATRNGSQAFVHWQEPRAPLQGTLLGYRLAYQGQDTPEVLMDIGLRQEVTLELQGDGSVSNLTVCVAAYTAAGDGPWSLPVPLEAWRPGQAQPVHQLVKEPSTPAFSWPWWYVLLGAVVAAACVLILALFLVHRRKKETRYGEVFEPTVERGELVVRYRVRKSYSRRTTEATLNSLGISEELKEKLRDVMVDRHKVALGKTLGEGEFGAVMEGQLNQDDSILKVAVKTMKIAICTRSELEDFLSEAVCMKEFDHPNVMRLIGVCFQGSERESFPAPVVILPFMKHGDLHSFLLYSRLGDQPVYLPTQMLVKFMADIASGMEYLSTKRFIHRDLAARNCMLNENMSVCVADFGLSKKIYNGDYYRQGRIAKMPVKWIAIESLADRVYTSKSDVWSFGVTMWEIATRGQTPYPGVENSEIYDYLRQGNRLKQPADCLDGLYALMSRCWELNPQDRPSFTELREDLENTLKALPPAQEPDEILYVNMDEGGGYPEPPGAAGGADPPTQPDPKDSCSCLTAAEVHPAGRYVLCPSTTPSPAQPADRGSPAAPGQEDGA

[2] = target: T1, Tyrosine-protein kinase receptor UFO; assay: Displacement of K5 tracer from Axl (unknown origin) expressed in human HEK293 cells cotransfected with NanoLuc measured after 2 hrs by NanoBRET assay; type: cell-based
[3] = Intrinsic clearance in mouse liver microsomes; type: ADME, Microsome; conditions: read-out: CLH
[4] = Distribution coefficient, logD of compound at pH 7.4; type: physicochemical; conditions: octanol/water
[5] = Efflux ratio of permeability in human Caco-2 cells; type: ADME, cell-based
SK-OV-3 = assay: Antiproliferative activity against human SK-OV-3 cells as reduction in cell growth measured after 72 hrs by Celltiter-Glo luminescent assay; type: functional
[6] = AUC (0 to infinity) in mouse at 5 mg/kg, po; type: ADME, organism-based; parameters: route oral, time infinity, dose 5 mg/kg; conditions: in vivo
[7] = target: Tyrosine-protein kinase receptor UFO (Homo sapiens) (UniProt P30530); assay: Inhibition of Axl in human SK-OV-3 cells assessed as reduction in phosphorylated ERK1/2 level at 1 to 10 uM measured after 1 hr by Western blot analysis; type: cell-based; conditions: dose 1-10 µM
[8] = Permeability across basolateral to apical side in human Caco-2 cells; type: ADME, cell-based; conditions: read-out: permeability
[9] = Tmax in mouse at 5 mg/kg, po; type: ADME, organism-based; conditions: in vivo
[10] = Half life in mouse at 5 mg/kg, po; type: ADME, organism-based; conditions: in vivo
[11] = Thermodynamic solubility of compound at pH 7.4; type: physicochemical; conditions: buffer, read-out: Therm_solubility
[12] = Cmax in mouse at 5 mg/kg, po; type: ADME, organism-based; parameters: route oral, dose 5 mg/kg; conditions: in vivo
[13] = target: MAP kinase-interacting serine/threonine-protein kinase 2 (Homo sapiens) (UniProt Q9HBH9); assay: Inhibition of MKNK2 (unknown origin)
Chain of MAP kinase-interacting serine/threonine-protein kinase 2 (Homo sapiens) (Q9HBH9 whole entry, looked up): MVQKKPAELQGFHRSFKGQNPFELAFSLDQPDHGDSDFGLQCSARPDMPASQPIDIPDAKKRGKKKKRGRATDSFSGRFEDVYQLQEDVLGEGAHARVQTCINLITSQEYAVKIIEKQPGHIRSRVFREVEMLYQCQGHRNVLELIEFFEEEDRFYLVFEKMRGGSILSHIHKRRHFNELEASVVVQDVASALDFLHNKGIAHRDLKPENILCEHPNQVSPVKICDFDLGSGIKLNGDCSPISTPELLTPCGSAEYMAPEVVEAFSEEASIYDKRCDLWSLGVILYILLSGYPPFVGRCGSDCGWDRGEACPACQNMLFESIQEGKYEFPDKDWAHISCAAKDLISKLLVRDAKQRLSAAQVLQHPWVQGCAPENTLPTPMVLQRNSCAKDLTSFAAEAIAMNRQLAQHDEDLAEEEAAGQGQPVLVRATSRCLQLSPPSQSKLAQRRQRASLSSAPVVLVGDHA

[14] = target: Tyrosine-protein kinase receptor UFO (Homo sapiens) (UniProt P30530); assay: Inhibition of Axl in human SK-OV-3 cells assessed as reduction in phosphorylated Axl level measured after 1 hr by Western blot analysis; type: cell-based; conditions: dose 1-10 µM
[15] = Permeability across apical to basolateral side in human Caco-2 cells; type: ADME, cell-based; conditions: read-out: permeability
[16] = target: Proto-oncogene tyrosine-protein kinase receptor Ret (Homo sapiens) (UniProt P07949); assay: Inhibition of RET (unknown origin)
Chain of Proto-oncogene tyrosine-protein kinase receptor Ret (Homo sapiens) (P07949 whole entry): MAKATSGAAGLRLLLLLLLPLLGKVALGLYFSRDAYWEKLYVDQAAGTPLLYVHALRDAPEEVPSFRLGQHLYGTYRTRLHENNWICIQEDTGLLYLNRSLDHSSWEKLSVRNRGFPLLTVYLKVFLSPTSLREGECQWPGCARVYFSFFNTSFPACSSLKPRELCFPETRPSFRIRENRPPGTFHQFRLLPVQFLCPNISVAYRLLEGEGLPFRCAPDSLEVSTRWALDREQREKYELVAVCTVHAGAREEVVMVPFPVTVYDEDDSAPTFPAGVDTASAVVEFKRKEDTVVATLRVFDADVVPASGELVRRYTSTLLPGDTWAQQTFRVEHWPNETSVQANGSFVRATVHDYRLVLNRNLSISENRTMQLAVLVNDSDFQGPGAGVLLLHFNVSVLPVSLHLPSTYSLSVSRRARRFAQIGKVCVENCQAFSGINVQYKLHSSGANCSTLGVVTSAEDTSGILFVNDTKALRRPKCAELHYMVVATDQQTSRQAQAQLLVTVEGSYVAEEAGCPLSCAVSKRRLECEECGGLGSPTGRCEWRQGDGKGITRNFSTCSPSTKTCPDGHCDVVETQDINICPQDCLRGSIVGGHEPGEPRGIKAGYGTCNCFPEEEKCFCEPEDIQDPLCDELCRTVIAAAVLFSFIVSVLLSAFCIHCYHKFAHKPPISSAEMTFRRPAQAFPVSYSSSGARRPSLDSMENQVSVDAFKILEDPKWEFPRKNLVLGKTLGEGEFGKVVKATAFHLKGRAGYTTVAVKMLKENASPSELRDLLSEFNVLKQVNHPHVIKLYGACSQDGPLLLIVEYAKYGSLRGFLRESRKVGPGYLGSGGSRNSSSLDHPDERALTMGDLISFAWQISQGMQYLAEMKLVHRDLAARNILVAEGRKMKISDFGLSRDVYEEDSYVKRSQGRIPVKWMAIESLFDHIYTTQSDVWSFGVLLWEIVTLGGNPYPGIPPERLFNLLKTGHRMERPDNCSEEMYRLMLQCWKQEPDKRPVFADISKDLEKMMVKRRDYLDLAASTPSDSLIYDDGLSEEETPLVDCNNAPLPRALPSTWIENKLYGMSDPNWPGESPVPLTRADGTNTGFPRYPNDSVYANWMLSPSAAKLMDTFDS

[17] = Intrinsic clearance in human liver microsomes; type: ADME, Microsome; conditions: read-out: CLH
[18] = target: Receptor-type tyrosine-protein kinase FLT3 (Homo sapiens) (UniProt P36888); assay: Inhibition of FLT3 (unknown origin)
Chain of Receptor-type tyrosine-protein kinase FLT3 (Homo sapiens) (P36888 whole entry): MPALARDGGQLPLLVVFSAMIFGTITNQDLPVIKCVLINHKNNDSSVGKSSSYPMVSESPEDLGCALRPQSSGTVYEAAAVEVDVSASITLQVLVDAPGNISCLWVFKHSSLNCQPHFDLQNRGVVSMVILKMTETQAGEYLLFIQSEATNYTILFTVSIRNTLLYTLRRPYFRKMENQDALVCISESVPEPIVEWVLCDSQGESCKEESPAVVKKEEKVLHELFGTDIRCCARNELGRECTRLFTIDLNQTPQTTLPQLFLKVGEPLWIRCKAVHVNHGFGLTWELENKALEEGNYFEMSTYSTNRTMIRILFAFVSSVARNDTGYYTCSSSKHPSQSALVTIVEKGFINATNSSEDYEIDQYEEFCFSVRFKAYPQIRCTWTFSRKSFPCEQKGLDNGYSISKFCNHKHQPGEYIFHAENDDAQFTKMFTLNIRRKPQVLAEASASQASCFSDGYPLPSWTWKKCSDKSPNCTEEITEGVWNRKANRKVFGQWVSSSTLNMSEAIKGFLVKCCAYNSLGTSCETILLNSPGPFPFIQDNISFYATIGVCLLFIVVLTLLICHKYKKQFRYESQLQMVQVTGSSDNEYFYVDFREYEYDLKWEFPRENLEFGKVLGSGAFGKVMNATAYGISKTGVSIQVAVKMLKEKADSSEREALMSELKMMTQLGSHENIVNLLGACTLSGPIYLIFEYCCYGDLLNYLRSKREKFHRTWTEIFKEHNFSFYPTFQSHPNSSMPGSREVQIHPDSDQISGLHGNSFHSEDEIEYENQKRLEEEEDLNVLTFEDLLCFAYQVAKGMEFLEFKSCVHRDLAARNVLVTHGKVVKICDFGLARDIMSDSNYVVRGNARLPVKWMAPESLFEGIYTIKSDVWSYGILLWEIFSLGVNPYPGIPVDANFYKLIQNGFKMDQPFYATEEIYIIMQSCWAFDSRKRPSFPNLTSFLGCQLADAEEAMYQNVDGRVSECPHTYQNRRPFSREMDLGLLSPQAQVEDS

## CN1CC[C@@H](Nc2cc3c(-c4cnn(C)c4)n[nH]c3cc2Cl)C1
[1]
  IC50: 74 µM
[2]
  IC50: 8.96 µM

## CN1CCC(Nc2ccc3[nH]nc(-c4cnn(C)c4)c3c2)CC1
[1]
  IC50: 207 µM

## COc1cc2[nH]ncc2cc1Br
[1]
  IC50: 227 µM

## CNC1CCN(c2ccc3[nH]nc(-c4cnn(C)c4)c3c2)C1 (centres undefined)
[1]
  IC50: 432 µM

## Cn1cc(-c2n[nH]c3cc(Cl)c(Br)cc23)cn1
[1]
  IC50: 0.85 µM

## FC(F)(F)c1cccc2[nH]ncc12
[1]
  IC50: 184 µM

## Cn1cc(-c2n[nH]c3cc(Br)ccc23)cn1
[1]
  IC50: 0.95 µM

## Cc1cnc2[nH]ccc2c1Cl
[1]
  IC50: 20.2 µM

## Nc1ccc2[nH]nc(Br)c2c1
[1]
  IC50: > 770 µM

## COc1ccc(-n2cc(-c3n[nH]c4cc(Cl)c(N[C@@H]5CCN(C6COC6)C5)cc34)cn2)cc1
[3]
  microsomal CLint: 44.8 µL/min/mg
[1]
  IC50: 41.5 µM
[4]
  logD: 4.75
[5]
  efflux ratio: 0.55
SK-OV-3
  GI50: 1020 nM
[6]
  AUC(0-inf): 1620 ng·h/mL
[7]
  inhibition: Active
[2]
  IC50: 11.4 µM
[8]
  Papp B→A: 8.41 ×10⁻⁶ cm/s
[9]
  Tmax: 15 min
[10]
  half-life: 148 min
[11]
  solubility thermodynamic: 1.84 µg/mL (≈ 3.96 µM)
[12]
  Cmax: 460 ng/mL
[13]
  inhibition: Active
[14]
  inhibition: Dose-Dependent Effect
[15]
  Papp A→B: 15.2 ×10⁻⁶ cm/s
[16]
  inhibition: Active
[17]
  microsomal CLint: 129 µL/min/mg
[18]
  inhibition: Active

## Clc1cc2[nH]nc(-c3cnn(-c4ccccc4)c3)c2cc1N[C@@H]1CCNC1
[1]
  IC50: 1.7 µM
[2]
  IC50: 0.668 µM

## FC(F)(F)n1cc(-c2n[nH]c3cc(Cl)c(N[C@@H]4CCN(C5COC5)C4)cc23)cn1
[3]
  microsomal CLint: 43.9 µL/min/mg
[1]
  IC50: 466 µM
[4]
  logD: 3.66
[5]
  efflux ratio: 0.82
[6]
  AUC(0-inf): 573 ng·h/mL
[2]
  IC50: 26.3 µM
[8]
  Papp B→A: 17.4 ×10⁻⁶ cm/s
[9]
  Tmax: 10.2 min
[10]
  half-life: 156 min
[11]
  solubility thermodynamic: 4.58 µg/mL (≈ 10.7 µM)
[12]
  Cmax: 258 ng/mL
[15]
  Papp A→B: 21.1 ×10⁻⁶ cm/s
[17]
  microsomal CLint: 15.4 µL/min/mg

## Cn1cc(-c2n[nH]c3ccc(N[C@H]4CCNC4)cc23)cn1
[1]
  IC50: 239 µM
[2]
  IC50: > 50 µM

## Cc1ccc(C)n1-c1ccsc1C(=O)O
[1]
  IC50: 70 µM

## Cn1cc(-c2n[nH]c3ccc(-c4ccccc4)cc23)cn1
[1]
  IC50: 0.62 µM

## c1cncc(-c2csc(-c3cccnc3)n2)c1
[1]
  IC50: 305 µM

## Clc1ccnc2[nH]ccc12
[1]
  IC50: 113 µM

## O=C(O)c1ccc2c(Br)n[nH]c2c1
[1]
  IC50: > 770 µM

## FCCn1cc(-c2n[nH]c3cc(Cl)c(N[C@@H]4CCNC4)cc23)cn1
[1]
  IC50: 5 µM
[2]
  IC50: 3.46 µM

## Nc1cccc2[nH]nc(Br)c12
[1]
  IC50: 486 µM

## Cn1cc(-c2n[nH]c3ccc(Br)cc23)cn1
[1]
  IC50: 1.54 µM

## CN1CCC(CNc2ccc3[nH]nc(-c4cnn(C)c4)c3c2)CC1
[1]
  IC50: 1850 µM

## Nc1ccc(Br)c2ccncc12
[1]
  IC50: 57 µM

## CC(C)Nc1ccc2c(-c3cnn(C)c3)n[nH]c2c1
[1]
  IC50: 46.6 µM

## CSc1cc(-c2ccc(F)cc2)n[nH]1
[1]
  IC50: 331 µM

## Cn1cc(-c2nn(C)c3cc(N)ccc23)cn1
[1]
  IC50: > 384 µM

## Nc1cccc(-c2cccnc2)c1
[1]
  IC50: 363 µM

## Cn1cc(-c2n[nH]c3cc(Cl)c(N[C@@H]4CCN(C5COC5)C4)cc23)cn1
[3]
  microsomal CLint: 15.2 µL/min/mg
[1]
  IC50: 320 µM
[4]
  logD: 2.31
[5]
  efflux ratio: 2.31
[6]
  AUC(0-inf): 396 ng·h/mL
[2]
  IC50: 24.7 µM
[8]
  Papp B→A: 31.6 ×10⁻⁶ cm/s
[9]
  Tmax: 10.2 min
[10]
  half-life: 120 min
[11]
  solubility thermodynamic: 245 µg/mL (≈ 657 µM)
[12]
  Cmax: 126 ng/mL
[15]
  Papp A→B: 13.7 ×10⁻⁶ cm/s
[17]
  microsomal CLint: 6.9 µL/min/mg

## Cn1cc(-c2n[nH]c3cc(Cl)c(N[C@@H]4CCNC4)cc23)cn1
[3]
  microsomal CLint: 9.38 µL/min/mg
[1]
  IC50: 19 µM
[4]
  logD: 0.32
[5]
  efflux ratio: 22.6
SK-OV-3
  GI50: 8620 nM
[7]
  inhibition: Active
[2]
  IC50: 3.13 µM
[8]
  Papp B→A: 8.71 ×10⁻⁶ cm/s
[11]
  solubility thermodynamic: 297 µg/mL (≈ 938 µM)
[14]
  inhibition: Dose-Dependent Effect
[15]
  Papp A→B: 0.39 ×10⁻⁶ cm/s
[17]
  microsomal CLint: < 12 µL/min/mg

## Cn1cc(-c2n[nH]c3ccc(N[C@@H]4CCNC4)cc23)cn1
[1]
  IC50: 37 µM
[2]
  IC50: 20.7 µM

## Cn1cc(-c2n[nH]c3ccc(Nc4ccccc4)cc23)cn1
[1]
  IC50: 0.58 µM

## O=C(O)c1ccc2cn[nH]c2c1
[1]
  IC50: > 770 µM

## Cn1cc(-c2n[nH]c3cc(-c4ccccc4)ccc23)cn1
[1]
  IC50: 12.3 µM

## N#Cc1ccccc1-n1cc(-c2n[nH]c3cc(Cl)c(N[C@@H]4CCNC4)cc23)cn1
[1]
  IC50: 3.2 µM
SK-OV-3
  GI50: 2780 nM
[2]
  IC50: 3.54 µM

## Fc1ccc(-n2cc(-c3n[nH]c4cc(Cl)c(N[C@@H]5CCNC5)cc34)cn2)cc1
[1]
  IC50: 2.3 µM
[2]
  IC50: 0.684 µM

## N#Cc1ccc(-n2cc(-c3n[nH]c4cc(Cl)c(N[C@@H]5CCNC5)cc34)cn2)cc1
[1]
  IC50: 0.7 µM
SK-OV-3
  GI50: 52.9 nM
[2]
  IC50: 0.88 µM

## Brc1cccc2[nH]ncc12
[1]
  IC50: 178 µM

## O=C1CC(c2ccccc2)=NN1
[1]
  IC50: 13 µM

## COc1ccc(-n2cc(-c3n[nH]c4cc(Cl)c(N[C@@H]5CCNC5)cc34)cn2)cc1
[1]
  IC50: 0.3 µM
SK-OV-3
  GI50: 718 nM
[7]
  inhibition: Active
[2]
  IC50: 0.374 µM
[14]
  inhibition: Dose-Dependent Effect

## COc1ccc(-n2cc(-c3n[nH]c4cc(Cl)c(N[C@H]5CNCC56CC6)cc34)cn2)cc1
[3]
  microsomal CLint: 5.14 µL/min/mg
[1]
  IC50: 1 µM
[4]
  logD: > 5
[5]
  efflux ratio: 1.3
SK-OV-3
  GI50: 28.5 nM
[6]
  AUC(0-inf): 129 ng·h/mL
[2]
  IC50: 0.883 µM
[8]
  Papp B→A: 5.24 ×10⁻⁶ cm/s
[9]
  Tmax: 15 min
[10]
  half-life: 130 min
[11]
  solubility thermodynamic: 5.55 µg/mL (≈ 12.8 µM)
[12]
  Cmax: 53 ng/mL
[15]
  Papp A→B: 4.05 ×10⁻⁶ cm/s
[17]
  microsomal CLint: 83 µL/min/mg

## c1cnc2[nH]ccc2c1
[1]
  IC50: 391 µM

## Brc1c[nH]c2ncccc12
[1]
  IC50: 22.8 µM

## Cn1cc(-c2n[nH]c3ccc(N)cc23)cn1
[1]
  IC50: 8.91 µM

## COc1ccc2[nH]c(C)cc2c1
[1]
  IC50: 38 µM

## Clc1ncnc2ccsc12
[1]
  IC50: 302 µM

## Nc1ccc2c(Br)n[nH]c2c1
[1]
  IC50: > 770 µM

## Brc1cnn2cccnc12
[1]
  IC50: 330 µM

## Cn1cc(-c2n[nH]c3cc(Nc4ccccc4)ccc23)cn1
[1]
  IC50: 219 µM

## Nc1ccc2c(-c3cccnc3)n[nH]c2c1
[1]
  IC50: 28.4 µM

## Cn1cc(-c2n[nH]c3cc(N)ccc23)cn1
[1]
  IC50: 28.8 µM

## Cn1cc(-c2n[nH]c3ccc(NC4CCNC4)cc23)cn1 (centres undefined)
[1]
  IC50: 132 µM

## N#Cc1cccc(-n2cc(-c3n[nH]c4cc(Cl)c(N[C@@H]5CCNC5)cc34)cn2)c1
[1]
  IC50: 2.3 µM
SK-OV-3
  GI50: 496 nM
[2]
  IC50: 2.02 µM

From ChEMBL document CHEMBL4840343, “Fragment-based lead discovery of indazole-based compounds as AXL kinase inhibitors” (Bioorg Med Chem, 2021)
